Data: paper PMC5824344 (ACS Chemical Biology, 2017)
Entries after “also recorded” stand apart in the source; their conditions may differ.

Test system: DENV (serotype 2, strain 16681) in Huh7.5 cells
Assay: DENV Huh7.5 antiviral assay (infectious titer by plaque assay)
Type: cell-based, dengue virus
Conditions: MOI 0.1, 48 h, titration of 4 or 50 µm of 3
Experimental: Supplemental Figure 3: Antiviral activity of 4 in human hepatoma Huh7.5 cell line.
(A) Huh7.5 cells were infected with DENV (serotype 2, strain 16681, multiplicity of infection = 0.1) and treated with a titration of ToP-DNJ 4 or 50 µm of tocopherol 3 for 48 h. Infectious virus titer was measured by plaque assay on LLC-MK2 cells. Counts were normalized to 100% for untreated samples.
DENV eﬀect at the concentrations tested. (B) Huh7.5 cells were infected with HCV (JFH-1, multiplicity of infection = 2) and treated with a titration of ToP-DNJ 4 or 50 µm tocopherol 3 for 96 h. Infectious virus titer was measured by TCID50 assay on […]
tested. In both panels, each data point represent the mean of triplicates, with error bars showing standard error of the mean (GraphPad Prism). […]
each well was scored as either positive (≥ 5 stained cells) or negative. TCID50 values were calculated according to the method of Reed and Muench.8 […]
The infectious DENV titres in supernatants collected were evaluated by plaque assay as described previously.9 Brieﬂy, LLC-MK2 cells were seeded in conﬂuent monolayers in a 12-well plate. Four 10-fold dilutions of each supernatant to be analyzed were prepared in minimum essential media (MEM, Gibco), supplemented with 100 µg mL−1 streptomycin, 100 U mL−1 penicillin and 10% (v/v) FCS. […]
After 1 d, plaques were observed and counted from the underside of the plate by eye. […]

## Cc1c(C)c2c(c(C)c1OCCCCCN1CC(O)C(O)C(O)C1CO)CCC(C)(CCCC(C)CCCC(C)CCCC(C)C)O2 (stereo not shown) [Compound 4, 5′-tocopheroxypentyl-DNJ]
  anti-DENV effect (infectious virus titer): neither an anti-DENV nor anti-HCV effect was observed; also recorded: Neither 4 nor 3 showed an anti-
